# Experimental data published in patent US10494611B2, “Compositions comprising a mitofusin inhibitor for promoting cell reprogramming and a use thereof” (KOREA RESEARCH INSTITUTE OF BIOSCIENCE AND BIOTECHNOLOGY, priority 2014, dated 2019).
# “Also recorded” adds a separate entry of the source.
# Columns and labels:
# [1] = test system: MEFs; test: Reprogramming of MEFs by OSKM transduction, AP staining; type: cell-based, mouse
# [2] = test system: human Mfn1 promoter; test: Human Mfn1 promoter reporter assay (luciferase) in 293T cells, REDOX library screening; type: cell-based; conditions: 293T cells with human Mfn1 promoter reporter, 10 μM, 48 hours
# Protocol: (§1) In one specific embodiment of the present invention, mouse and human Mfn1 promoter reporter (Genecopoeia) cells were prepared using Mfn1−/−MEFs and 293T cells, respectively, and a Screen-Well™ REDOX library containing the 84 compounds was treated at a concentration of 10 μM by for 48 hours.
# (§2) Mfn1-KO MEFs were stably transfected with an Mfn1 promoter reporter construct (Genecopoeia) cells of mouse and human were produced using Mfn1−/− MEFs and 293T cells (human embryonic renal cells) and then treated with the Screen-Well™ REDOX library, containing 84 compounds, for 48 hours in a concentration of 10 nM to 10 μM. Mfn1 promoter activity was measured in the culture supernatants with the Secrete-Pair™ Dual Luminescence and Gaussia Luciferase Assay Kits (Genecopoeia) using a SpectraMax microplate reader.
# [3] = test system: MEFs; test: Mitochondrial morphology of reprogramming cultures (Mito-EYFP); type: cell-based, mouse; conditions: OSKM, 50 μM Mdivi1, Mito-EYFP, D7
# Protocol: Cells were fixed in 4% paraformaldehyde for 10 minutes at room temperature (RT) and then in MeOH for 15 minutes at −20° C., after which their permeability was increased with 0.3% Triton X-100 in PBS for 30 min and blocked with 4% BSA for 2 hours at RT. The samples were stained with the anti-Tom20 antibody diluted in a blocking buffer at 4° C. overnight. After washing, the cells were stained with Alexa 488-conjugated secondary antibodies (Invitrogen) for 45 minutes at RT. The nuclei were counterstained with 10 μg/ml DAPI. For live cell imaging, the cells were incubated with 200 nM MitoTracker® Red CMXRos (Invitrogen) for 30 minutes at 37° C. Florescent images were analyzed under an IX51 microscope (Olympus) or an Axiovert 200M microscope (Carl Zeiss).
# [4] = test system: mouse Mfn1 promoter; test: Mouse Mfn1 promoter reporter assay (luciferase), REDOX library screening; type: cell-based; conditions: Mfn1−/− MEFs carrying Mfn1 promoter reporter, 10 μM, 48 hours
# Protocol: as §1, §2
smiles,measurement,setting,value
"O=CC[C@@H](O)[C@H](O)[C@H](O)CO [2-DG, 2-deoxy-D-glucose]",cellular reprogramming (AP+ colonies) with glycolysis inhibitor,"[1]; OSKM reprogramming of MEFs, D11",substantially decreased
CC1=C(C)C(=O)C(CC[C@](C)(O)CCC[C@H](C)CCC[C@H](C)CCCC(C)C)=C(C)C1=O [D-α-tocopheryl quinone],human Mfn1 promoter activity (relative luciferase activity),[2],down-regulated; also recorded: best inhibit
COc1cc(-n2c(=S)[nH]c3ccccc3c2=O)c(Cl)cc1Cl [Mdivi1],higher reprogramming efficiency of Mfn1−/− and Mfn2−/− MEFs,"[1]; OSKM, 50 μM Mdivi1, AP+ colonies D11",blocked
same,fragmented mitochondrial morphology of Mfn1−/− and Mfn2−/− MEFs,[3],blocked
Cc1coc2c1C(=O)C(=O)c1c-2ccc2c1CCCC2(C)C [Tanshinone IIA],mouse Mfn1 promoter activity (relative luciferase activity),[4],top 2 upregulated
"C[C@]12C=CC(=O)C=C1CC[C@@H]1C2=CC[C@]2(C)[C@@H](C(=O)CN3CCN(c4cc(N5CCCC5)nc(N5CCCC5)n4)CC3)CC[C@@H]12.O=C(O)/C=C\C(=O)O [U74389G maleate, 21-[4-(2,6-di-1-pyrrolidinyl-4-pyrimidinyl)-1-piperazinyl]pregna-1,4,9[11]-triene-3,20-dione maleate]",human Mfn1 promoter activity (relative luciferase activity),[2]; maleate,down-regulated; also recorded: best inhibit
same,mouse Mfn1 promoter activity (relative luciferase activity),"[4]; listed as 21-[4-(2,6-di-1-pyrrolidinyl-4-pyrimidinyl)-1-piperazinyl]pregna-1,4,9[11]-trien, maleate",top 3 downregulated
same,mouse Mfn1 promoter activity (relative luciferase activity),[4]; maleate,down-regulated; also recorded: inhibited
CN(C/C=C/C#CC(C)(C)C)Cc1cccc2ccccc12.Cl [erbinafine.HCl],mouse Mfn1 promoter activity (relative luciferase activity),[4],top 2 upregulated
CCCCCCCCCCCCCCCC(=O)OC/C=C(C)/C=C/C=C(C)/C=C/C1=C(C)CCCC1(C)C [retinyl palmitate],human Mfn1 promoter activity (relative luciferase activity),[2],down-regulated; also recorded: best inhibit
Cc1nc(C)c(C)nc1C [tetramethylpyrazine],mouse Mfn1 promoter activity (relative luciferase activity),[4],top 3 downregulated
same,mouse Mfn1 promoter activity (relative luciferase activity),[4]; listed as tetramethyl pyrazine,down-regulated
